Laboratory results as given in patent US12702691B2, “Extract of an herbal composition as antimicrobial and/or antibiofilm agent” (ALPHANOSOS S.A.S., priority 2016, dated 2026).

Assays:
[1] = test system: B-A21; experiment: Planktonic growth with extract and antibiotic relative to growth without both (Example 14); type: cell-based
Method: (§1) Starting from the herbal composition, the corresponding water extracts (or processed samples) was prepared according to the previously described Method B using 2.06 g of the above herbal composition with 40 mL water with 100 g/L sucrose for water extraction and including the decantation step before filtration. In an independent water extract preparation without sucrose, it has been measured that 2.06 g/40 mL of herbal composition corresponds to 14.5 g/L as deduced from the weight of the lyophilized dry herbal extract.
(§2) In Example 14 we calculate the growth of the bacteria in presence of antibiotic and/or herbal mix relative to the growth in the absence of both antibiotic and herbal mix extract.

[2] = test system: B-A17; experiment: as above; type: cell-based
Method: as §1, §2

[3] = M[20C]-576 0 μg/mL, antibiotic 3.91 μg/mL
[4] = M[20C]-576 0 μg/mL, antibiotic 7.81 μg/mL
[5] = M[20C]-576 0 μg/mL, antibiotic 15.63 μg/mL
[6] = M[20C]-576 0 μg/mL, antibiotic 31.25 μg/mL
[7] = M[20C]-576 0 μg/mL, antibiotic 62.50 μg/mL
[8] = M[20C]-576 0 μg/mL, antibiotic 125 μg/mL
[9] = M[20C]-576 0 μg/mL, antibiotic 250 μg/mL
[10] = M[20C]-576 0 μg/mL, antibiotic 500 μg/mL
[11] = M[20C]-576 0 μg/mL, antibiotic 1000 μg/mL
[12] = M[20C]-576 0 μg/mL, antibiotic 2000 μg/mL
[13] = M[20C]-576 0 μg/mL, antibiotic 4000 μg/mL
[14] = M[20C]-576 90.6 μg/mL, antibiotic 3.91 μg/mL
[15] = M[20C]-576 90.6 μg/mL, antibiotic 7.81 μg/mL
[16] = M[20C]-576 90.6 μg/mL, antibiotic 15.63 μg/mL
[17] = M[20C]-576 90.6 μg/mL, antibiotic 31.25 μg/mL
[18] = M[20C]-576 90.6 μg/mL, antibiotic 62.50 μg/mL
[19] = M[20C]-576 90.6 μg/mL, antibiotic 125 μg/mL
[20] = M[20C]-576 90.6 μg/mL, antibiotic 250 μg/mL
[21] = M[20C]-576 90.6 μg/mL, antibiotic 500 μg/mL
[22] = M[20C]-576 90.6 μg/mL, antibiotic 1000 μg/mL
[23] = M[20C]-576 90.6 μg/mL, antibiotic 2000 μg/mL
[24] = M[20C]-576 90.6 μg/mL, antibiotic 4000 μg/mL
[25] = M[20C]-576 181.3 μg/mL, antibiotic 3.91 μg/mL
[26] = M[20C]-576 181.3 μg/mL, antibiotic 7.81 μg/mL
[27] = M[20C]-576 181.3 μg/mL, antibiotic 15.63 μg/mL
[28] = M[20C]-576 181.3 μg/mL, antibiotic 31.25 μg/mL
[29] = M[20C]-576 181.3 μg/mL, antibiotic 62.50 μg/mL
[30] = M[20C]-576 181.3 μg/mL, antibiotic 125 μg/mL
[31] = M[20C]-576 181.3 μg/mL, antibiotic 250 μg/mL
[32] = M[20C]-576 181.3 μg/mL, antibiotic 500 μg/mL
[33] = M[20C]-576 181.3 μg/mL, antibiotic 1000 μg/mL
[34] = M[20C]-576 181.3 μg/mL, antibiotic 2000 μg/mL
[35] = M[20C]-576 181.3 μg/mL, antibiotic 4000 μg/mL

Substance: Penicillin
- planktonic growth relative to the growth in the absence of both extract and antibiotic [1, 3]: 135%
- planktonic growth relative to the growth in the absence of both extract and antibiotic [1, 4]: 116%
- planktonic growth relative to the growth in the absence of both extract and antibiotic [1, 5]: 115%
- planktonic growth relative to the growth in the absence of both extract and antibiotic [1, 6]: 113%
- planktonic growth relative to the growth in the absence of both extract and antibiotic [1, 7]: 108%
- planktonic growth relative to the growth in the absence of both extract and antibiotic [1, 8]: 106%
- planktonic growth relative to the growth in the absence of both extract and antibiotic [1, 9]: 101%
- planktonic growth relative to the growth in the absence of both extract and antibiotic [1, 10]: 0%
- planktonic growth relative to the growth in the absence of both extract and antibiotic [1, 11]: 0%
- planktonic growth relative to the growth in the absence of both extract and antibiotic [1, 12]: 0%
- planktonic growth relative to the growth in the absence of both extract and antibiotic [1, 13]: 0%
- planktonic growth relative to the growth in the absence of both extract and antibiotic [1, 14]: 104%
- planktonic growth relative to the growth in the absence of both extract and antibiotic [1, 15]: 83%
- planktonic growth relative to the growth in the absence of both extract and antibiotic [1, 16]: 83%
- planktonic growth relative to the growth in the absence of both extract and antibiotic [1, 17]: 84%
- planktonic growth relative to the growth in the absence of both extract and antibiotic [1, 18]: 80%
- planktonic growth relative to the growth in the absence of both extract and antibiotic [1, 19]: 74%
- planktonic growth relative to the growth in the absence of both extract and antibiotic [1, 20]: 26%
- planktonic growth relative to the growth in the absence of both extract and antibiotic [1, 21]: 0%
- planktonic growth relative to the growth in the absence of both extract and antibiotic [1, 22]: 0%
- planktonic growth relative to the growth in the absence of both extract and antibiotic [1, 23]: 0%
- planktonic growth relative to the growth in the absence of both extract and antibiotic [1, 24]: 0%
- planktonic growth relative to the growth in the absence of both extract and antibiotic [1, 25]: 62%
- planktonic growth relative to the growth in the absence of both extract and antibiotic [1, 26]: 43%
- planktonic growth relative to the growth in the absence of both extract and antibiotic [1, 27]: 70%
- planktonic growth relative to the growth in the absence of both extract and antibiotic [1, 28]: 61%
- planktonic growth relative to the growth in the absence of both extract and antibiotic [1, 29]: 60%
- planktonic growth relative to the growth in the absence of both extract and antibiotic [1, 30]: 45%
- planktonic growth relative to the growth in the absence of both extract and antibiotic [1, 31]: −3%
- planktonic growth relative to the growth in the absence of both extract and antibiotic [1, 32]: −3%
- planktonic growth relative to the growth in the absence of both extract and antibiotic [1, 33]: −3%
- planktonic growth relative to the growth in the absence of both extract and antibiotic [1, 34]: −3%
- planktonic growth relative to the growth in the absence of both extract and antibiotic [1, 35]: −3%
- planktonic growth relative to the growth in the absence of both extract and antibiotic [2, 3]: 137%
- planktonic growth relative to the growth in the absence of both extract and antibiotic [2, 4]: 138%
- planktonic growth relative to the growth in the absence of both extract and antibiotic [2, 5]: 3%
- planktonic growth relative to the growth in the absence of both extract and antibiotic [2, 6]: 1%
- planktonic growth relative to the growth in the absence of both extract and antibiotic [2, 7]: 0%
- planktonic growth relative to the growth in the absence of both extract and antibiotic [2, 8]: −1%
- planktonic growth relative to the growth in the absence of both extract and antibiotic [2, 9]: 0%
- planktonic growth relative to the growth in the absence of both extract and antibiotic [2, 10]: 0%
- planktonic growth relative to the growth in the absence of both extract and antibiotic [2, 11]: 0%
- planktonic growth relative to the growth in the absence of both extract and antibiotic [2, 12]: 0%
- planktonic growth relative to the growth in the absence of both extract and antibiotic [2, 13]: 0%
- planktonic growth relative to the growth in the absence of both extract and antibiotic [2, 14]: 39%
- planktonic growth relative to the growth in the absence of both extract and antibiotic [2, 15]: 25%
- planktonic growth relative to the growth in the absence of both extract and antibiotic [2, 16]: 1%
- planktonic growth relative to the growth in the absence of both extract and antibiotic [2, 17]: 0%
- planktonic growth relative to the growth in the absence of both extract and antibiotic [2, 18]: 0%
- planktonic growth relative to the growth in the absence of both extract and antibiotic [2, 19]: 0%
- planktonic growth relative to the growth in the absence of both extract and antibiotic [2, 20]: 0%
- planktonic growth relative to the growth in the absence of both extract and antibiotic [2, 21]: 0%
- planktonic growth relative to the growth in the absence of both extract and antibiotic [2, 22]: 0%
- planktonic growth relative to the growth in the absence of both extract and antibiotic [2, 23]: 0%
- planktonic growth relative to the growth in the absence of both extract and antibiotic [2, 24]: 0%
- planktonic growth relative to the growth in the absence of both extract and antibiotic [2, 25]: 23%
- planktonic growth relative to the growth in the absence of both extract and antibiotic [2, 26]: 5%
- planktonic growth relative to the growth in the absence of both extract and antibiotic [2, 27]: −3%
- planktonic growth relative to the growth in the absence of both extract and antibiotic [2, 28]: −3%
- planktonic growth relative to the growth in the absence of both extract and antibiotic [2, 29]: −3%
- planktonic growth relative to the growth in the absence of both extract and antibiotic [2, 30]: −3%
- planktonic growth relative to the growth in the absence of both extract and antibiotic [2, 31]: −2%
- planktonic growth relative to the growth in the absence of both extract and antibiotic [2, 32]: −3%
- planktonic growth relative to the growth in the absence of both extract and antibiotic [2, 33]: −4%
- planktonic growth relative to the growth in the absence of both extract and antibiotic [2, 34]: −4%
- planktonic growth relative to the growth in the absence of both extract and antibiotic [2, 35]: −2%
